From the NIST ThermoML archive (doi:10.1021/je500420g)
± gives the expanded uncertainty stated by the source.

Assay: xn = mol fraction of the nth substance listed
Details: 100 kPa, Liquid, Vibrating tube method

mass density (293.15 K, x1 = 0.01) [kg/m3] | mass density (293.15 K, x1 = 0.03) [kg/m3] | mass density (293.15 K, x1 = 0.05) [kg/m3] | mass density (303.15 K, x1 = 0.01) [kg/m3] | mass density (303.15 K, x1 = 0.03) [kg/m3] | mass density (303.15 K, x1 = 0.05) [kg/m3] | mass density (313.15 K, x1 = 0.01) [kg/m3] | mass density (313.15 K, x1 = 0.03) [kg/m3] | mass density (313.15 K, x1 = 0.05) [kg/m3] | mass density (323.15 K, x1 = 0.01) [kg/m3] | mass density (323.15 K, x1 = 0.03) [kg/m3] | mass density (323.15 K, x1 = 0.05) [kg/m3] | mass density (333.15 K, x1 = 0.01) [kg/m3] | mass density (333.15 K, x1 = 0.03) [kg/m3] | mass density (333.15 K, x1 = 0.05) [kg/m3] | SMILES
1043.6 ± 0.2 | 1129.5 ± 0.3 | 1217.1 ± 0.3 | 1040 ± 0.2 | 1125.2 ± 0.3 | 1211.8 ± 0.3 | 1035.8 ± 0.2 | 1120.4 ± 0.3 | 1206.2 ± 0.3 | 1031.1 ± 0.2 | 1115.1 ± 0.3 | 1200.2 ± 0.3 | 1026 ± 0.2 | 1109.4 ± 0.3 | 1194 ± 0.3 | [Br-].[Na+] [sodium bromide] + O
1025.7 ± 0.2 | 1080.5 ± 0.2 | 1135.5 ± 0.3 | 1022.8 ± 0.2 | 1077 ± 0.2 | 1130.7 ± 0.3 | 1019.2 ± 0.2 | 1072.9 ± 0.2 | 1126.5 ± 0.3 | 1014.8 ± 0.2 | 1068.4 ± 0.2 | 1121.9 ± 0.3 | 1010 ± 0.2 | 1063.5 ± 0.2 | 1116.9 ± 0.3 | [F-].[K+] [potassium fluoride] + O
1021.3 ± 0.2 | 1066.2 ± 0.2 | 1110.8 ± 0.3 | 1018.3 ± 0.2 | 1062.4 ± 0.2 | 1106.2 ± 0.3 |  | 1058 ± 0.2 | 1101.6 ± 0.3 | 1010.1 ± 0.2 | 1052.4 ± 0.2 | 1096.4 ± 0.3 | 1005.1 ± 0.2 | 1047.6 ± 0.2 | 1090.9 ± 0.3 | [Cl-].[Na+] [sodium chloride] + O
1065.2 ± 0.2 | 1194 ± 0.3 | 1317.9 ± 0.4 | 1061.9 ± 0.2 | 1189.3 ± 0.3 | 1312.1 ± 0.4 | 1057.9 ± 0.2 | 1184.1 ± 0.3 | 1306 ± 0.4 | 1053.2 ± 0.2 | 1178.4 ± 0.3 | 1299.3 ± 0.4 | 1047.9 ± 0.2 | 1172.3 ± 0.3 | 1292.4 ± 0.4 | [I-].[K+] [potassium iodide] + O
1045.7 ± 0.2 | 1137.7 ± 0.3 | 1227.4 ± 0.3 | 1042.6 ± 0.2 | 1133.7 ± 0.3 | 1222.6 ± 0.3 | 1038.7 ± 0.2 | 1129.1 ± 0.3 | 1217.4 ± 0.3 | 1034.2 ± 0.2 | 1123.9 ± 0.3 | 1211.7 ± 0.3 | 1029.2 ± 0.2 | 1118.4 ± 0.3 | 1205.7 ± 0.3 | [Br-].[K+] [potassium bromide] + O
1061.7 ± 0.2 | 1186.7 ± 0.3 | 1309.5 ± 0.4 | 1058.4 ± 0.2 | 1181.8 ± 0.3 | 1303.2 ± 0.4 | 1054.2 ± 0.2 | 1176.3 ± 0.3 | 1296.5 ± 0.4 | 1049.5 ± 0.2 | 1169.1 ± 0.3 | 1289.5 ± 0.4 | 1044.1 ± 0.2 | 1163.4 ± 0.3 | 1282.2 ± 0.4 | [I-].[Na+] [sodium iodide] + O
